One may read the EC50 as the concentration needed to bring the measured effect to its halfway point. The CC50 is the concentration at which the toxic effect on the cells reaches its halfway point. For orientation: AC50 means the concentration giving half of the maximal activity seen. The IC50 is the concentration that inhibits the measured activity by half.

Activity calls are given as the source filed them.

The results in this text go back to ChEMBL document CHEMBL1201862, “PubChem BioAssay data set” (2004).

For experiment [1], the target named is T1, Endoribonuclease toxin MazF (Escherichia coli K-12, UniProt P0AE70).
T1 sequence (P0AE70 whole entry): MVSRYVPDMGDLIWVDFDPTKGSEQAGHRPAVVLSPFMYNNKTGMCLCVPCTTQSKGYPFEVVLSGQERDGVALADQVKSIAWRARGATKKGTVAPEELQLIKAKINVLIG
Put plainly: MazF endoribonuclease activators, SAR follow-up, biochemical, fluorescence, single-stranded RNA substrate (AID 588603). It counts as functional.

Experiment [2] concerns the target T1, Endoribonuclease toxin MazF. Description: MazF toxin RNase activators, dose response, biochemical, fluorescence, single-stranded RNA substrate, uHTS hits (AID 588481). It counts as functional.
The next experiment deals with MEF. Put plainly: SAR analysis of small molecule cytotoxicity of MazEF TA System activators in embryonic fibroblast (MEF) cells. [Related pubchem assays (depositor defined):AID504720, AID504743]. It counts as functional. The conditions noted are these: Mus musculus.
Experiment [3] addresses T1, Endoribonuclease toxin MazF. Description: SAR analysis of small molecule activators of the MazEF TA System via a fluorescence-based single-stranded RNase assay counterscreen. [Related pubchem assays (depositor defined):AID504720, AID504743]. In kind it is functional. Background: Counterscreens check selectivity or assay interference.
For experiment [4] the target is unchanged. Description: fluorescent RNA oligo signal without MazF, dose response, counter-screen for MazEF activator project, biochemical, fluorescence, single-stranded RNase substrate (AID 588502). It counts as functional.
Experiment [5] deals with Beta-2 adrenergic receptor (Homo sapiens, UniProt P07550). Put plainly: beta2AR agonists driving receptor internalization, dose response, cell-based, FAP fluorogen, flow cytometry, cherry pick 1 (AID 588763). In kind it is functional. In general terms: In flow cytometry, cells or beads pass a laser one at a time.
Sequence of Beta-2 adrenergic receptor (P07550 whole entry): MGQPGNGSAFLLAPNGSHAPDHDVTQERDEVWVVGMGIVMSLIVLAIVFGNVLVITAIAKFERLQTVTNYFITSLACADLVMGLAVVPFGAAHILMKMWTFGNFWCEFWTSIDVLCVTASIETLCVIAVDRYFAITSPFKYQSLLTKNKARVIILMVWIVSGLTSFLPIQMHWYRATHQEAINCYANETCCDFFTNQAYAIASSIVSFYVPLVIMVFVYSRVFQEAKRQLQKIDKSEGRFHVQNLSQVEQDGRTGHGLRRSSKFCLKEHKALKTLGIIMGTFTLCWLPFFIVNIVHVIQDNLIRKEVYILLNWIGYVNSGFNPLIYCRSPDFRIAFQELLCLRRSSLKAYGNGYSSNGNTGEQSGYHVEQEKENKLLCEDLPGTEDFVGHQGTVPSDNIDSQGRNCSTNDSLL
Experiment [6] relates to BJ. Put plainly: cytotoxicity toward BJ-TERT fibroblasts, dose response, cell-based, RAS-independent, luminescence (AID 1933). It counts as functional. The conditions noted are these: Homo sapiens.
Experiment [7] deals with BJ. Put plainly: cells. It counts as functional, cell-based. The following applies: Homo sapiens.
In experiment [8] the test system is BJ. Description: cytotoxicity toward BJ-TERT-LT-ST fibroblasts, dose response, cell-based, RAS-independent, luminescence (AID 1935).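 Note: BJ fibroblasts immortalized with TERT plus LT and ST oncogenes.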 In kind it is functional. The following applies: Homo sapiens.
Experiment [9] in a line: cytotoxicity toward DRD oncogenic fibroblasts, dose response, cell-based, non-viral oncogenic, luminescence (AID 1934). In kind it is functional. The following applies: Homo sapiens.
Another experiment has as its target Cytochrome P450 2C19 (Homo sapiens, UniProt P33261). Description: Cytochrome panel assay with activity outcomes. Panel member name: p450-cyp2c19 Compounds with AC50 equal or less than 10 uM are considered active. It counts as functional. The conditions noted are these: read-out: AC50.
The subject of experiment [10] is BJ. Put plainly: cytotoxicity toward Ras-transformed BJeLR fibroblasts, dose response, cell-based, alamar blue fluorescence, cherrypicked samples (AID 2631).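 Note: confirmatory dose-response assay in RAS-dependent BJ fibroblasts engineered with TERT, LT and ST, with cytotoxicity read by fluorescence.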 The conditions noted are these: Homo sapiens. It counts as functional. Background: The colour change of resazurin is a common sign of viable cells or microbes.
A further experiment concerns INS1. Description: beta cell apoptosis inhibitors, cytokine rescue, dose response, luminescence, retest (AID 449756).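 Note: cell death triggered by IL-1 beta plus TNF-alpha plus IFN-gamma mixture; protective hits raise ATP signal compared with cytokine alone wells.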 In kind it is functional, cell-based. The following applies: Rattus norvegicus.
The next experiment has as its target Cytochrome P450 2C9 (Homo sapiens, UniProt P11712).
Experiment [11] is described as follows: growth suppression of PTEN-null colon cells, dose response, cell-based, HCT116 PTEN knockout (AID 1047).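 Note: HCT116 colon tumor cells with PTEN knocked out; cells exposed to compound for 60 hours before readout; potency for loss of cell viability measured by luminescence.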 It counts as functional.
Experiment [12] can be described thus: growth suppression of beta-catenin-knockout colon cells, dose response, cell-based, HCT116, human colon tumor (AID 1045).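 Note: HCT116 colon tumor cells with beta catenin knocked out; cells exposed to compound for 60 hours.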 In kind it is functional.
The target of experiment [13] is T2, Mannose-6-phosphate isomerase (Homo sapiens, UniProt P34949).
T2 sequence (P34949 whole entry): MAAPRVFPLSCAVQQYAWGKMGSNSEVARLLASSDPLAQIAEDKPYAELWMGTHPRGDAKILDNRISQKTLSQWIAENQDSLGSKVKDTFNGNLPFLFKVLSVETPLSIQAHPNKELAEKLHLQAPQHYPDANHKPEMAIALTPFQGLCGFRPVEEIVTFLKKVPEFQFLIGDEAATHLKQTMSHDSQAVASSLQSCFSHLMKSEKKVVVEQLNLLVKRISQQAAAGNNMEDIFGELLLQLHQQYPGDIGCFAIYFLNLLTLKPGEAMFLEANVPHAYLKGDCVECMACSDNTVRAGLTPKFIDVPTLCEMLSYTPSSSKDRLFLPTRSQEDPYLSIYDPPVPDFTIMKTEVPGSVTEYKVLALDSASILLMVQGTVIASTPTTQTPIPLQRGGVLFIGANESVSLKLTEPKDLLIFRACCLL
Put plainly: human PMI inhibitors, high substrate, primary screen, biochemical, fluorescence intensity, high mannose 6-phosphate (AID 1220).

For another experiment, the system named is Vero. Description: Vero cell cytotoxicity, cytotoxicity control for flavivirus capping enzyme inhibitors (AID 588742). It counts as functional. The conditions noted are these: Chlorocebus sabaeus.
Another experiment has as its target Protein Tat (Human immunodeficiency virus type 1 group M subtype B (isolate HXB2)(HIV-1), UniProt P04608). In kind it is functional.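 Note: tat binding to TAR RNA read out by fluorescence polarization.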
Experiment [14] in a line: THP-1 cell cytotoxicity, dose response, cytotoxicity control for Vif-APOBEC3G degradation inhibitor project, THP-1 cells (AID 1117359). It counts as functional. The following applies: Human immunodeficiency virus 1, THP-1.

Sequence of Protein Tat (P04608 whole entry): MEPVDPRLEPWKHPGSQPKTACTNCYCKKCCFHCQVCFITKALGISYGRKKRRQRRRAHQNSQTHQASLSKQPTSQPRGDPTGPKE
Sequence of Cytochrome P450 2C9 (P11712 whole entry): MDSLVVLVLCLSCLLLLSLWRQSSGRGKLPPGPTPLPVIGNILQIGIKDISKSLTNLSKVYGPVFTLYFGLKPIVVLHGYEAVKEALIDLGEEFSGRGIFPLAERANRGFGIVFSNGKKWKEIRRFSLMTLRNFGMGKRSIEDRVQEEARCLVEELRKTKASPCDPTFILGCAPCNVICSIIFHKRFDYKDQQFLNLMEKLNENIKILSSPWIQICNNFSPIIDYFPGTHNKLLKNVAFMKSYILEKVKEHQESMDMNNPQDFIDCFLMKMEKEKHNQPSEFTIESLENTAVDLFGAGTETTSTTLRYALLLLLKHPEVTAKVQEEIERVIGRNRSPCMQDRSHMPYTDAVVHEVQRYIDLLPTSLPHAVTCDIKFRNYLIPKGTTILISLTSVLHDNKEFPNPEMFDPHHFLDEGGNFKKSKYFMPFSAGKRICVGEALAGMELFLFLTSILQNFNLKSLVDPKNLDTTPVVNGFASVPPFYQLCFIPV
Sequence of Cytochrome P450 2C19 (P33261 whole entry): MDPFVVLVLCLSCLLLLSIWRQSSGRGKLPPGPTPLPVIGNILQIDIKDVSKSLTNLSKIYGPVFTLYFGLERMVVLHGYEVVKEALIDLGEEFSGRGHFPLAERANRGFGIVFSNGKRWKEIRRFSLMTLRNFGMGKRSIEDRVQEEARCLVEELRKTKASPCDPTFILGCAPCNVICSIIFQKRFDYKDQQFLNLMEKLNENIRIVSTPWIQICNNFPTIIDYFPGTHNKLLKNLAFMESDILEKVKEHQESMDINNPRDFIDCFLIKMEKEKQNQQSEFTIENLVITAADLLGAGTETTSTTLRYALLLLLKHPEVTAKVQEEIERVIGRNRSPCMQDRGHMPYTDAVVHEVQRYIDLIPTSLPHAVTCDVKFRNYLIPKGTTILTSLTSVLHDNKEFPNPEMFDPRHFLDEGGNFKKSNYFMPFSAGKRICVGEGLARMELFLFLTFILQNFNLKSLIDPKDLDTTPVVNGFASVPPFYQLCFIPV

On to `N#Cc1ccc(N2C(=O)[C@@H]3C(C(=O)c4ccc5ccccc5n4)=NN[C@@H]3C2=O)cc1`, for which the EC50 in [1] was 7.74 µM (active); in [2] it was 15.1 µM (active); in experiment [3] it was > 99 µM (inactive); in [4], 271 nM (active). Also, the CC50 with MEF was > 99 µM (inactive).

As to `O=C(Cc1ccccc1)NC1(Cc2ccc(O)cc2)CCCCC1`, the concentration for a half-maximal effect (EC50) in [5] is 7.47 µM (active).

For `O=C(COc1ccc([N+](=O)[O-])cc1)Nc1ccc(C(=O)NCc2cccnc2)cc1`, the EC50 is > 150 µM (not active) with BJ [6]; 12.8 µM (inconclusive) with BJ [7]; > 150 µM (not active) with BJ [8]; > 150 µM (not active) in [9]; 2.51 µM (inconclusive) in the experiment on BJ [10]. Also, the concentration at half-maximal activity (AC50) at Cytochrome P450 2C19 was 7.94 µM (inconclusive); in the experiment with INS1, < 195 nM (active); at Cytochrome P450 2C9 it was 22.4 µM (inconclusive).

As to `CCOc1cccc(CNc2ccc(O)cc2)c1OCc1ccc(Cl)cc1`, the half-maximal effective concentration (EC50) was 25.2 µM (active) in [11] and 29.4 µM (active) in experiment [12]. The values for the IC50 (in experiment [13]; at Protein Tat) were > 50 µM (not active) and 86 µM (inconclusive), respectively. Further, the CC50 in the experiment on Vero is > 40 µM (active); in experiment [14], 37 µM (active).
